What was measured:
Type in all cases: cell-based, human
SKOV-3 cells [1] = assay: Clonogenic assay; details: three weeks incubation
Protocol: The SKOV-3 cells were trypsinized, centrifuged, and supplemented with fresh media. The cells were immediately counted and seeded (300 cells/plate) in a 60 mm Petridish, and left overnight to attach. The attached cells were treated with 0, 1, 5, 10, 15, and 20 μg/mL of artonin E for 24 h. Following incubation, the treated media were removed and fresh media were added. The cells were incubated for three weeks to form colonies. Surviving colonies were fixed with 90% ethanol and stained with crystal violet.

survivin = assay: Western blot, survivin; details: SKOV-3, 8 μg/mL, 72 h after treatment
Protocol: (§1) SKOV-3 cells were plated in a 75cm^2 culture flask and exposed to artonin E for 24, 48, and 72 h. Lysis buffer (50 mM Tris–HCl, pH 8.0; 120 mM NaCl, 0.5% NP-40; and 1 mM PMSF) was used to extract the total protein. Protein concentration was determined using a BCA protein assay reagent kit (Bio-Rad, USA). Equal amounts of protein (40 μg) extract were subjected to SDS-PAGE and electroblotted onto a polyvinylidenedifluoride membrane (Bio-Rad). Blots were then blocked with 5% non-fat milk in TBS-Tween buffer 7 (0.12 M Tris-base, 1.5 M NaCl, and 0.1% Tween 20) for 1 h at room temperature. After incubating with the appropriate primary antibody overnight at 4°C, the blots were washed and then incubated with horseradish peroxidase conjugated secondary antibody for 1 h at room temperature. The protein bands were detected using pico or femto chemiluminescence (ECL system) and visualized using a UV gel documentation system. The subsequent primary antibodies, which include those for β-actin (1:10,000), Bax (1:10,000), Bcl-2 (1:10,000), HSP-70 (1:10,000), survivin (1:10,000),caspase -3 (1:10,000), caspase -8 (1:10,000), caspase -9 (1;10,000) and cytochrome c (1:200) were purchased from Abcam, Cambridge, United Kingdom.

HSP70 = assay: Western blot, HSP70; details: SKOV-3, 8 μg/mL, 72 h after treatment
Protocol: as §1

SKOV-3 cells [2] = assay: Annexin V-FITC/PI flow cytometry; details: SKOV-3, 8 μg/mL
Protocol: An Annexin V assay was performed using a BD Pharmingen^TM Annexin V-FITC Apoptosis Detection Kit (ApoAlert Annexin V, Clontech, California, USA). The cells were placed in a 6-well plate and left overnight to attach. Cells were then treated with 8 μg/mL of artonin E for 24, 48, and 72h. The treated cells were trypsinized and centrifuged at 1,500 rpm for 10 min to remove residual media. Subsequently, 1X binding buffer was added to rinse the fresh pellets before their resuspension in 200 μL of binding buffer. The cells were then mixed with 5 μL of Annexin V and 10 μL of PI and incubated for 15 min in the dark at room temperature. The prepared cells were immediately analyzed using flow cytometric analysis (FACS Canto 11 Becton-Dickson). Then, 300 μL of binding buffer was added to each sample to adjust the reaction volume to at least 500 μL for the flow cytometric analysis. The cells treated with DMSO (0.1%, v/v) were used as control.

SKOV-3 cells [3] = assay: Intracellular ROS generation (DCFH-DA); details: SKOV-3, 8 μg/mL
Protocol: 2′,7′-Dichlorofluorescin diacetate (DCFH-DA) was used to examine the production of intracellular reactive oxygen species in SKOV-3 cells treated with artonin E. The SKOV-3 cells were seeded in the 96-well black plate and incubated overnight to attach. The cells were then treated with 8 μg/mL of artonin E for 24, 48, and 72 h. Hank’s balanced salt solution without serum was used to wash the cells. Then, 100 μL of DCFH-DA solution was added to each designated well, and the plate was incubated at 37°C for 30 min. The results were analyzed using a fluorescence microplate reader (Tecan Infinite M 200 PRO, Männedorf, Switzerland) at 485 nm excitation and 520 nm emission.

caspase-3 = assay: Western blot, caspase-3; details: SKOV-3, 8 μg/mL, as early as 24 h
Protocol: as §1

caspase-9 = assay: Western blot, caspase-9; details: SKOV-3, 8 μg/mL, as early as 24 h
Protocol: as §1

In the case of CC(C)=CCc1c(-c2cc(O)c(O)cc2O)oc2c3c(cc(O)c2c1=O)OC(C)(C)C=C3 [Artonin E, artonin E], the colony formation (SKOV-3 cells [1]; SKOV-3, 5 μg/mL for 24 h) is reported as “almost half of the colonies were reduced”, the colony formation (SKOV-3 cells [1]; SKOV-3, 10 μg/mL for 24 h) is reported as “decreasing sharply” and the colony formation (SKOV-3 cells [1]; SKOV-3, 15 and 20 μg/mL for 24 h) is reported as “No colonies were formed”. For the same compound, the “level of survivin expression” value (survivin) was “reduced significantly”, the “level of HSP70 expression” value (HSP70) was “reduced significantly” and the “cells at the early stage of apoptosis” value (SKOV-3 cells [2]; 24 h post treatment) was “more than 40%”. The “cells at the late stage of apoptosis” value (SKOV-3 cells [2]; 48 h post treatment) was “more than 40%”, the “increase in the formation of ROS compared with untreated cells” value (SKOV-3 cells [3]; 24 and 48 h after treatment) was “twofold” and the ROS induction (SKOV-3 cells [3]; 72 h after treatment) was “slightly decreased”. The “protein expression level of caspase-3” value (caspase-3) was “significantly (p<0.05) up-regulated” and the “protein expression level of caspase-9” value (caspase-9) was “significantly (p<0.05) up-regulated”.

— publication PMC4809498, “Artonin E Induces Apoptosis via Mitochondrial Dysregulation in SKOV-3 Ovarian Cancer Cells” (PLoS ONE, 2016)
